Experimental data published in patent US11547300B2, “Methods of treating and imaging tumor micrometastases using photoactive immunoconjugates” (priority 2014, dated 2023).

Columns and labels:
[1] = test system: OVCAR5 cells; conditions: cited from earlier work
[2] = test system: EOC (NIH:OVCAR5) tumors; conditions: mouse, in vivo
Method: Micrometastatic mouse model. An orthotopic xenograft mouse model of human ovarian carcinomatosis was established in our laboratory with gynecologic oncologists (30). Athymic Swiss female Nu/Nu mice (20-25 grams and 6-8 weeks old; Cox Breeding Laboratories) were injected intraperitoneally (i.p.) with 16×10^6 NIH:OVCAR5 (EOC) cells in 2 mL phosphate-buffered saline. All experiments were conducted according to Massachusetts General Hospital Institutional Animal Care and Use Committee (IACUC) guidelines.

N.N.[Cl][Pt][Cl] [cisplatin]
resistance relative to a platinum sensitive cell line [1]: 7 fold

verteporfin
tumor-to-bowel ratio [2]: 2.7
tumor-to-bowel ratio from fitting the pharmacokinetic data to a model [2]: 2.8
